Assay results published in US11040981B2, “Pyrrolotriazine compounds and methods of inhibiting TAM kinases” (Syros Pharmaceuticals, Inc., priority 2017, dated 2021).

Assays:
FLT3 = biological target: T1, FLT3 (Homo sapiens, UniProt P36888); test: TR-FRET kinase activity assay, FLT3; type: biochemical; details: ATP at Km, 60 minutes
T1 sequence (P36888 27-993): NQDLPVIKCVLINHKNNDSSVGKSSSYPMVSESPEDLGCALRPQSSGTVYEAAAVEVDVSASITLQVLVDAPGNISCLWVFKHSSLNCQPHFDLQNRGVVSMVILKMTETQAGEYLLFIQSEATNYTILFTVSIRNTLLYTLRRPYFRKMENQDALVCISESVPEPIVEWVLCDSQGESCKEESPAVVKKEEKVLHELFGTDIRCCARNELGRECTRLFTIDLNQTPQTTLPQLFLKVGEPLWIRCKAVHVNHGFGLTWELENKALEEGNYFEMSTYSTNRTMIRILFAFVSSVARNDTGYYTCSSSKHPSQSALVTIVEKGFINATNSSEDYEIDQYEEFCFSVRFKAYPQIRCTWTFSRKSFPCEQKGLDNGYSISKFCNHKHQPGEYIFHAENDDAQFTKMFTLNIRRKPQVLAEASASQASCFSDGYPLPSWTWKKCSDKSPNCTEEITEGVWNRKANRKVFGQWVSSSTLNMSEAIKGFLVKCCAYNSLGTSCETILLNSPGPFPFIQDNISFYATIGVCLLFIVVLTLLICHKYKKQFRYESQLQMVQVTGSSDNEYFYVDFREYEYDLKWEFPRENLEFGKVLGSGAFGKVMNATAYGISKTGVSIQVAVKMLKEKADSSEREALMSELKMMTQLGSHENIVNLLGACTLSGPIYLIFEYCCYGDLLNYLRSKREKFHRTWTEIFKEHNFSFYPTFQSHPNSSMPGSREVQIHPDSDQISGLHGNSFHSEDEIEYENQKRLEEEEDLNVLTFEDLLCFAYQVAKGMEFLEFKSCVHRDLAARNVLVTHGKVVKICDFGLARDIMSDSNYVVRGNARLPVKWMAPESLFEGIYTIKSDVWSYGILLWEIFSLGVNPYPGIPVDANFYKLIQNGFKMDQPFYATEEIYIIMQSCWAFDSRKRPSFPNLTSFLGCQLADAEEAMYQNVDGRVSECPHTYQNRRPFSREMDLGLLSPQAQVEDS
Method in brief: (§1)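 IC50 reflects the drop in TR-FRET between Eu anti-phosphotyrosine antibody and labelled peptide after a 60-minute room-temperature reaction. Buffer was 50 mM HEPES pH 7.5 with 10 mM MgCl2, 1 mM EGTA, 0.01% Brij 35 and 1 mM DTT, with ATP at Km per enzyme and EDTA quench.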

MERTK = biological target: T2, MERTK (Homo sapiens, UniProt Q12866); test: TR-FRET kinase activity assay, MERTK; type: biochemical
T2 sequence (Q12866 21-999): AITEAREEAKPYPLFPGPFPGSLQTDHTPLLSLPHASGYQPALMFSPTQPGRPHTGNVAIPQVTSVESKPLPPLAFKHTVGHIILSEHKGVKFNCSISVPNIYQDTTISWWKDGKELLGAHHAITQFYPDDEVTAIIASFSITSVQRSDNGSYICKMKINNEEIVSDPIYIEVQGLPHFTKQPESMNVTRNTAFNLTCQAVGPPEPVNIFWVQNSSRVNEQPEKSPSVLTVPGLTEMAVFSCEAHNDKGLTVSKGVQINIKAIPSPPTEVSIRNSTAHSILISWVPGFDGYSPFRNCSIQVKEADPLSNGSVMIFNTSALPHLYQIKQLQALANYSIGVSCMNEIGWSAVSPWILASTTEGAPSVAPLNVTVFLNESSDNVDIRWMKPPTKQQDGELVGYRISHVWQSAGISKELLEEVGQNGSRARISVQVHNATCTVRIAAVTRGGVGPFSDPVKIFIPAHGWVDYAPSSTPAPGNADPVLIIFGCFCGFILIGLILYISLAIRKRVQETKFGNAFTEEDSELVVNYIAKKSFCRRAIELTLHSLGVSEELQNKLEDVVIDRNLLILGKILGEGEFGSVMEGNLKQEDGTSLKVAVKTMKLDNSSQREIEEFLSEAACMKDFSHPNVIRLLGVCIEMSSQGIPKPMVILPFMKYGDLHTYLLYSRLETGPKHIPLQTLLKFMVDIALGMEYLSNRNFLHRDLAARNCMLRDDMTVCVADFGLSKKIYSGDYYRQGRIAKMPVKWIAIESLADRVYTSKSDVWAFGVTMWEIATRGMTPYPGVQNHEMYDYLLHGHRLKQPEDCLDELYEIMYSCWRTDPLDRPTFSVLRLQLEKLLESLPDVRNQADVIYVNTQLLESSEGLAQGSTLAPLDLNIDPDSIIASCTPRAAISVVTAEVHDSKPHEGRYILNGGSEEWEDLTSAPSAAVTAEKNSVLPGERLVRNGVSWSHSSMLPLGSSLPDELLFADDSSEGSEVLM
Method in brief: as §1

- IC50 (FLT3): 1 to 10 µM
- IC50 (MERTK; TR-FRET activity assay, ATP at Km, 60 minutes, read-out: Mer IC50): ≤ 100 nM
- FLT3/Mer ratio (FLT3 IC50/Mer IC50) (MERTK; ratio calculated as FLT3 IC50/Mer IC50): +++ (“+++” represents a ratio of >100)
SMILES: COC[C@H](C)Nc1ncc2c(-c3cnn(C(C)(C)C(=O)N4CCOCC4)c3)cc([C@@H]3CCc4cn[nH]c4C3)n2n1 [Compound 594]
